Experimental data: ChEMBL document CHEMBL1201862, “PubChem BioAssay data set” (2004)
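Test compounds were applied to cells in 96-well plates for 48 hours at 5 doses. GI50 = concentration required for 50% inhibition of growth.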 Active and inactive are the calls of the source. Rule as the data show it: active = GI50 up to about 1.1 µM and inactive = higher.

How the values were obtained:
Experiment in all cases: NCI tumour cell line growth inhibition, 48 h
[1] = test system: OVCAR-5
[2] = test system: SK-MEL-2
[3] = test system: TK-10
[4] = test system: SNB-75
[5] = test system: SK-MEL-5
[6] = test system: SN12C
[7] = test system: NCI-H522
[8] = test system: HCC 2998
[9] = test system: Malme-3M
[10] = test system: CAKI-1
[11] = test system: COLO 205
[12] = test system: HT-29
[13] = test system: HL-60
[14] = test system: HCT-116
[15] = test system: A549
[16] = test system: KM12
[17] = test system: M14
[18] = test system: UACC-257
[19] = test system: MOLT-4
[20] = test system: MDA-MB-231

Measured: GI50

COc1cc2c(cc1OCc1ccccc1)CNCC2
inactive: [1] > 100 µM | [2] > 100 µM | [3] > 100 µM | [4] > 100 µM | [5] > 100 µM | [6] > 100 µM | [7] > 100 µM | [8] > 100 µM | [9] > 100 µM | [10] > 100 µM | [11] > 100 µM | [12] > 100 µM | [13] 70.3 µM | [14] > 100 µM | [15] > 100 µM | [16] > 100 µM | [17] > 100 µM | [18] > 100 µM | [19] > 100 µM

O=C(c1nc2ccc(Cl)cc2[nH]c1=O)C(O)c1cccc([N+](=O)[O-])c1 (stereo not drawn)
inactive: [1] > 100 µM | [2] > 100 µM | [3] > 100 µM | [4] > 100 µM | [5] 48.6 µM | [6] > 100 µM | [7] 16.2 µM | [8] > 100 µM | [9] > 100 µM | [10] > 100 µM | [11] > 100 µM | [12] 16.3 µM | [13] 19.8 µM | [14] > 100 µM | [15] > 100 µM | [16] 57 µM | [17] > 100 µM | [18] > 100 µM | [19] 35.9 µM

NC(=S)N1N=C2CCCCCC[C@@H]2[C@H]1c1ccccc1
inactive: [1] > 100 µM | [2] 64.6 µM | [3] 63 µM | [4] 75.2 µM | [5] 22.4 µM | [6] 86.1 µM | [7] 21.2 µM | [8] 79.4 µM | [9] 59.3 µM | [10] > 100 µM | [11] 46.7 µM | [12] 29.2 µM | [13] 19.2 µM | [14] 43.1 µM | [15] 24.4 µM | [16] 35.2 µM | [17] 74.5 µM | [18] 36.6 µM | [19] 31.8 µM

COC(=O)c1nc(-c2ccc(Cl)c(Cl)c2)nc2ccccc12
inactive: [1] > 100 µM | [2] 71.8 µM | [3] 34.6 µM | [4] 5.04 µM | [5] > 35.8 µM | [6] > 100 µM | [7] > 100 µM | [8] > 100 µM | [9] > 100 µM | [10] 44.3 µM | [12] > 100 µM | [13] > 100 µM | [14] 13.1 µM | [15] 34.9 µM | [16] > 85.7 µM | [17] > 24.1 µM | [18] > 29.6 µM | [19] > 100 µM

CC(=O)CC(=O)c1cc2c(=O)oc(C)cc2oc1=O
inactive: [1] > 37.5 µM | [2] > 37.5 µM | [3] > 37.5 µM | [4] 2.75 µM | [5] > 37.5 µM | [6] > 37.5 µM | [7] > 37.5 µM | [8] > 37.5 µM | [9] > 37.5 µM | [10] > 37.5 µM | [11] > 37.5 µM | [12] > 37.5 µM | [13] > 37.5 µM | [14] > 37.5 µM | [15] > 37.5 µM | [16] > 37.5 µM | [17] > 37.5 µM | [18] > 37.5 µM | [19] > 37.5 µM

O=C(O)C(O)c1ccc(F)cc1 (stereo not drawn)
inactive: [1] > 100 µM | [2] > 100 µM | [3] > 100 µM | [4] > 100 µM | [6] > 100 µM | [7] > 100 µM | [9] > 100 µM | [10] > 100 µM | [12] > 100 µM | [20] > 100 µM | [14] > 100 µM | [15] > 100 µM | [16] > 100 µM | [17] > 100 µM | [18] > 100 µM | [19] > 100 µM

ClC(Cl)=C(Cl)C1(Cl)CC1COCc1ccccc1 (stereo not drawn)
inactive: [1] 32.6 µM | [2] 17.8 µM | [3] 60.8 µM | [4] 37.2 µM | [5] 15.8 µM | [6] 39.8 µM | [7] 16.5 µM | [8] 31.6 µM | [9] 18.4 µM | [10] 65.8 µM | [11] 25.2 µM | [12] 24.8 µM | [13] 15.6 µM | [15] 26.1 µM | [16] 35 µM | [17] 32.4 µM | [18] 26.1 µM | [19] 20.9 µM
